Assay results from patent US20240425484A1, “INHIBITORS OF TYK2” (Atomwise Inc., priority 2023, published 2024).

Tests used:
[1] = Brain exposure pharmacokinetic study in C57BL/6 mice; assay type: in vivo, mouse; conditions: male C57BL/6 mice, oral gavage 5 mg/kg, plasma
Procedure: The brain exposure of 18 was evaluated in male C57BL/6 mice after oral gavage administration at 5 mg/kg. The formulation was 10% DMSO+40% PEG400 in saline. Mice were provided free access to food and water without fasting. Terminal sample collection of plasma and brain tissue were collected at […], 0.25, 0.5, 1, 2, and 4 hours post-dose with n=3 at each timepoint.
(§1) For both rat and mouse studies, brain tissue was washed with 3 volumes of saline prior to homogenization. Brain tissue was homogenized with 3 volumes (v/w) of phosphate buffered saline. Plasma, brain homogenate, and CSF samples (rat only) were analyzed by LC-MS/MS and the concentration of test compound at each time point was determined by linear regression.
(§2) Pharmacokinetic parameters were calculated from the plasma, brain, and CSF concentrations by non-compartmental modeling using WinNonlin 8.2.

TYK2-JH2 = molecular target: T1, TYK2-JH2 (Homo sapiens, UniProt P29597); test: TYK2-JH2 HTRF binding assay (ligand efficiency); conditions: calculated (Equation 1) from IC50 of the TYK-JH2 binding assay
T1 construct: TYK JH2 enzyme mix (ChemPartner: CP20210818A-BV); purchased ChemPartner CP20210818A-BV
Procedure: The following example describes the TYK2-JH2 HTRF binding assay used to determine the ligand efficiency of the TYK2 inhibitors.
To calculate ligand efficiency, Equation 1 is applied: […]
in which IC50 comes from the binding assay used to determine compound potency.
TYK JH2 enzyme mix (ChemPartner: CP20210818A-BV), tracer (ChemPartner: CP-0029472-051) and mAb Anti-6HIS Tb cryptate Gold (Cisbio: Cat No. 61HI2TLA) mix were prepared in assay buffer (10 mM MgCl2, 20 mM HEPES pH 7.5, 0.01% Triton X-100, 1 mM DTT). Compounds diluted in DMSO (Final Concentrations 0.1 to 0.000005 [μM]) and enzyme mix (0.5 nM Final Concentration) were added to 384 well plates, briefly centrifuged and incubated at room temperature for 10 minutes. After incubation, tracer mix (Tracer-35 nM final concentration); (MAb Anti-6HIS Tb cryptate Gold-0.5X final)) was added, briefly centrifuged then incubate at room temperature 60 minutes. After incubation, plates were read by Envision TR-FRET (Ex340/Em495/520) protocol (PerkinElmer-Envision 2104 multilabel plate reader).

[2] = Mouse pharmacokinetic study, oral administration; assay type: in vivo; conditions: male, mouse plasma, PO at 5 mg/kg; for half-life: read-out: Half-life t1/2; for Cmax: read-out: Maximum plasma concentration Cmax; for AUC(0-inf): read-out: Total systemic exposure AUCinf
Procedure: The following example describes the methods used to evaluate the pharmacokinetics of TYK2 inhibitors in vivo following dosing of a compound of the invention.
The pharmacokinetics of test compounds were evaluated in either male CD-1 mice or male C57BL/6 mice when administered by oral gavage and IV bolus injection. The animals were allowed free access to food and water before administration. The plasma samples were analyzed by LC-MS/MS and the concentration of test compound at each time point was determined by linear regression. Pharmacokinetic parameters were calculated from the plasma concentrations by non-compartmental modeling using WinNonlin 8.2.
Oral composition. To prepare a pharmaceutical composition for oral delivery, the test articles described herein were dissolved in DMSO and then mixed with necessary volume of PEG400 followed by 0.9% sterile saline or 5% dextrose in water or 5% Kolliphor HS 15 in saline to provide the final concentrations of 0.5 mg/mL or 1 mg/mL (Table 8). The resultant mixtures were suitable for oral administration.
The PK parameters measured in mouse plasma after treatment with TYK2 inhibitor compounds via PO (oral administration) at 5 mg/kg are summarized below in Tables 9-11.

[3] = Brain exposure pharmacokinetic study in Sprague Dawley rats; assay type: in vivo, rat; conditions: male Sprague Dawley rats, oral gavage 10 mg/kg, plasma, CSF
Procedure: The brain exposure of exemplary compounds, e.g., 1, 2, and 4 were evaluated in male Sprague Dawley rats after oral gavage administration at 10 mg/kg. The formulation was 5% DMSO+10% PEG400 in saline. Rats were fasted overnight with food returned 4 hours post-dose. CSF was collected by direct needle puncture into the cisterna magna.
as §1, §2

T1 sequence (P29597 589-875 limits assumed): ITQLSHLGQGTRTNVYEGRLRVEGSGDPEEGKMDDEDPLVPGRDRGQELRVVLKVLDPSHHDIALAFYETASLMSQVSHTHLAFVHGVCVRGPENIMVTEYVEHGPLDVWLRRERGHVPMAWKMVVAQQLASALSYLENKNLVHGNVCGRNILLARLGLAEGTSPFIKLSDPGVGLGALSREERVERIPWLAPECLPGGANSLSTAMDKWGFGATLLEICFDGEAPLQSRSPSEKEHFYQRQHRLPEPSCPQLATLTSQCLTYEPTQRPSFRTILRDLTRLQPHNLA

SMILES | Brain Kpu, u [1] | Ligand Efficiency (TYK2-JH2) | half-life [2] | Cmax [2] | AUC(0-inf) [2] | Brain Kpu, u [3]
Cc1cccc(Nc2cc(Nc3ncccc3S(C)(=O)=O)ncn2)n1 [Compound 18, N^4-(6-methylpyridin-2-yl)-N^6-(3-(methylsulfonyl)pyridin-2-yl)pyrimidine-4,6-diamine] | ††† (††† >0.2 u) | ††† (†††: >0.39) | – | – | – | –
C[C@H]1CN(C2CC2)CCN1c1ccc(Nc2cc(Nc3ncccc3S(C)(=O)=O)ncn2)nc1 [Compound 8, (S)—N^4-(5-(4-cyclopropyl-2-methylpiperazin-1-yl)pyridin-2-yl)-N^6-(3-(methylsulfonyl)pyridin-2-yl)pyrimidine-4,6-diamine] | – | ††† (†††: >0.39) | > 90 min | 800 to 1500 ng/mL | 1000 to 2000 ng·h/mL | –
CS(=O)(=O)c1cccnc1Nc1cc(Nc2ccc3c(n2)CCCC3N2CC3(COC3)C2)ncn1 (stereo in doubt) [Compound 5, (R)—N^4-(5-(2-oxa-6-azaspiro[3.3]heptan-6-yl)-5,6,7,8-tetrahydroquinolin-2-yl)-N^6-(3-(methylsulfonyl)pyridin-2-yl)pyrimidine-4,6-diamine] | – | – | > 90 min | > 1500 ng/mL | > 2000 ng·h/mL | –
C[C@@H](c1ccc(Nc2cc(Nc3ncccc3S(C)(=O)=O)ncn2)nc1)N(C)C [Compound 4, (S)—N^4-(5-(1-(dimethylamino)ethyl)pyridin-2-yl)-N^6-(3-(methylsulfonyl)pyridin-2-yl)pyrimidine-4,6-diamine] | – | ††† (†††: >0.39) | 60 to 90 min | < 800 ng/mL | < 1000 ng·h/mL | ††† (††† >0.2 u)
C[C@@H](c1ccc(Nc2cc(Nc3ncc(F)cc3S(C)(=O)=O)ncn2)nc1)N1CC2(COC2)C1 [Compound 2, (S)—N^4-(5-(1-(2-oxa-6-azaspiro[3.3]heptan-6-yl)ethyl)pyridin-2-yl)-N^6-(5-fluoro-3-(methylsulfonyl)pyridin-2-yl)pyrimidine-4,6-diamine] | – | ††† (†††: >0.39) | 60 to 90 min | > 1500 ng/mL | > 2000 ng·h/mL | † (†<0.1 u)
Cc1nc(Nc2cc(Nc3ncccc3S(C)(=O)=O)ncn2)ccc1[C@H](C)N1CC2(COC2)C1 (stereo in doubt) [Compound 12, N^4-(5-(1-(2-oxa-6-azaspiro[3.3]heptan-6-yl)ethyl)-6-methylpyridin-2-yl)-N^6-(3-(methylsulfonyl)pyridin-2-yl)pyrimidine-4,6-diamine] | – | ††† (†††: >0.39) | < 60 min | > 1500 ng/mL | 1000 to 2000 ng·h/mL | –
Cc1ccnc(Nc2cc(Nc3ccccc3S(C)(=O)=O)ncn2)c1 [Compound 44, N^4-(4-methylpyridin-2-yl)-N^6-(2-(methylsulfonyl)phenyl)pyrimidine-4,6-diamine] | – | ††† (†††: >0.39) | > 90 min | < 800 ng/mL | < 1000 ng·h/mL | –
C[C@@H](c1ccc(Nc2cc(Nc3ncccc3S(C)(=O)=O)ncn2)nc1)N1CC2(COC2)C1 [Compound 1, (S)—N^4-(5-(1-(2-oxa-6-azaspiro[3.3]heptan-6-yl)ethyl)pyridin-2-yl)-N^6-(3-(methylsulfonyl)pyridin-2-yl)pyrimidine-4,6-diamine] | – | ††† (†††: >0.39) | 60 to 90 min | < 800 ng/mL | 1000 to 2000 ng·h/mL | †† (††0.1-0.2 u)
CC(c1ccc(Nc2cc(Nc3ncccc3S(C)(=O)=O)ncn2)nc1C(F)(F)F)N1CC2(COC2)C1 (stereo in doubt) [Compound 11, (R)—N^4-(5-(1-(2-oxa-6-azaspiro[3.3]heptan-6-yl)ethyl)-6-(trifluoromethyl)pyridin-2-yl)-N^6-(3-(methylsulfonyl)pyridin-2-yl)pyrimidine-4,6-diamine] | – | – | > 90 min | 800 to 1500 ng/mL | > 2000 ng·h/mL | –
Cc1nc(Nc2cc(Nc3ncccc3S(C)(=O)=O)ncn2)ccc1NC1(C)COC1 [Compound 6, N^4-(6-methyl-5-((3-methyloxetan-3-yl)amino)pyridin-2-yl)-N^6-(3-(methylsulfonyl)pyridin-2-yl)pyrimidine-4,6-diamine] | – | ††† (†††: >0.39) | < 60 min | > 1500 ng/mL | > 2000 ng·h/mL | –
CC(c1ccc(Nc2cc(Nc3ncccc3S(C)(=O)=O)ncn2)nc1)N1CCCC1 (stereo in doubt) [Compound 15, (R)—N^4-(3-(methylsulfonyl)pyridin-2-yl)-N^6-(5-(1-(pyrrolidin-1-yl)ethyl)pyridin-2-yl)pyrimidine-4,6-diamine] | – | ††† (†††: >0.39) | – | – | – | –
Cc1cccc(Nc2cc(Nc3ccncc3C(N)=O)ncn2)n1 [Compound 51, 4-((6-((6-methylpyridin-2-yl)amino)pyrimidin-4-yl)amino) nicotinamide] | – | ††† (†††: >0.39) | – | – | – | –
C[C@H]1COCCN1c1ccc(Nc2cc(Nc3ccccc3S(C)(=O)=O)ncn2)nc1 [Compound 54, (S)—N^4-(5-(3-methylmorpholino)pyridin-2-yl)-N^6-(2-(methylsulfonyl)phenyl)pyrimidine-4,6-diamine] | – | † (†: <0.37) | – | – | – | –
CC(NC1COC1)c1ccc(Nc2cc(Nc3ccccc3S(C)(=O)=O)ncn2)nc1 (stereo in doubt) [Compound 40, (R)—N^4-(2-(methylsulfonyl)phenyl)-N^6-(5-(1-(oxetan-3-ylamino)ethyl)pyridin-2-yl)pyrimidine-4,6-diamine] | – | ††† (†††: >0.39) | – | – | – | –
